Assay results published in ChEMBL document CHEMBL1201862, “PubChem BioAssay data set” (2004).
Calls of active or inactive are those of the source.

Columns and labels:
[1] = tested on: Streptococcus sp. 'group A'; assay: Streptococcus pyogenes SK(-)GAS viability under kanamycin – luminescence, BacTiterGlo, confirmation, counter-screen for streptokinase expression inhibitor project, dose response (AID 1900); type: functional, organism-based
Streptokinase A = biological target: T1, Streptokinase A (Streptococcus pyogenes serotype M1, UniProt P10520); assay: viability-normalized secreted streptokinase activity reduction – plasminogen activation absorbance, OD405, dose response (AID 1914); type: functional, Streptococcus pyogenes M1 GAS;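 also: secreted streptokinase activity via plasminogen activation per viability signal from cell pellet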
T1 sequence (P10520 whole entry): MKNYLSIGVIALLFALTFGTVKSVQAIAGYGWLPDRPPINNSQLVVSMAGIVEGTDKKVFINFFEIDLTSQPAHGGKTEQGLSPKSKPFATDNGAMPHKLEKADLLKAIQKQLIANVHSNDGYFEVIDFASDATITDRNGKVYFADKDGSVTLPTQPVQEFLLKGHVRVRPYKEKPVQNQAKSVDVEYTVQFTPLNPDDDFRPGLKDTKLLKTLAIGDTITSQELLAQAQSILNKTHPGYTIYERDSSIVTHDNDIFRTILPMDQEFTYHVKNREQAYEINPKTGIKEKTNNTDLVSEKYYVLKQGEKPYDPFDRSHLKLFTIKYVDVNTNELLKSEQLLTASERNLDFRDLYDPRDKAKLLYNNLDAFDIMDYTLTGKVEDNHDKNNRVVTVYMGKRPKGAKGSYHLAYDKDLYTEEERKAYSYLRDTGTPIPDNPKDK

Streptococcus = assay: GAS UMAA2166 growth inhibition – luminescence, BacTiterGlo, counter-screen for streptokinase expression inhibitor project, dose response (AID 1915); type: functional, organism-based;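 also: potency for reduction of bacterial viability or growth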
[2] = Trypanosoma cruzi growth suppression in host cells – NIH3T3 host cells, beta-gal luminescence, confirmation (AID 2044); type: functional, cell-based;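 also: intracellular parasites grown in NIH/3T3 mouse fibroblasts as host cells; luminescent beta-galactosidase reporter signal from transgenic T. cruzi replicating inside host cells; inhibitors lower the luminescence signal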
[3] = NIH3T3 cell viability loss – ATP luminescence, mouse fibroblasts, counter-screen, dose response (AID 2010); type: functional, cell-based;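 also: cells exposed to compound for about 90 hours before reading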
Cytochrome P450 2C19 = Cytochrome P450 2C19 (Homo sapiens, UniProt P33261); assay: Cytochrome panel assay with activity outcomes. Panel member name: p450-cyp2c19 Compounds with AC50 equal or less than 10 uM are considered active; type: functional
Sequence of Cytochrome P450 2C19 (P33261 whole entry): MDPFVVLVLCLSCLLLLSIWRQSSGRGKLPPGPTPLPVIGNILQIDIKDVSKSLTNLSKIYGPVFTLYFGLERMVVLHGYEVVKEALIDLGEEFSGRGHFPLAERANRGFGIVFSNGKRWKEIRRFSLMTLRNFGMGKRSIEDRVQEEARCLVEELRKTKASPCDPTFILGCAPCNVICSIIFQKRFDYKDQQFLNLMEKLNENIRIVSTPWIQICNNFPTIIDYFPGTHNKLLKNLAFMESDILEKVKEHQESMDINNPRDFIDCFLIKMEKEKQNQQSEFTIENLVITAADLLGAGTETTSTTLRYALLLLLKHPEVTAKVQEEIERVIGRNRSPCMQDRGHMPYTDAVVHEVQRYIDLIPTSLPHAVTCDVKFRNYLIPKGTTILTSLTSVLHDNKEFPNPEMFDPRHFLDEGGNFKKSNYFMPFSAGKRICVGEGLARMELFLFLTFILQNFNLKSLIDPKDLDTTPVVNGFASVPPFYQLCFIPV

Cytochrome P450 2D6 = Cytochrome P450 2D6 (Homo sapiens, UniProt P10635);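 also: CYP2D6 member of a cytochrome P450 panel assay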
Sequence of Cytochrome P450 2D6 (P10635 whole entry): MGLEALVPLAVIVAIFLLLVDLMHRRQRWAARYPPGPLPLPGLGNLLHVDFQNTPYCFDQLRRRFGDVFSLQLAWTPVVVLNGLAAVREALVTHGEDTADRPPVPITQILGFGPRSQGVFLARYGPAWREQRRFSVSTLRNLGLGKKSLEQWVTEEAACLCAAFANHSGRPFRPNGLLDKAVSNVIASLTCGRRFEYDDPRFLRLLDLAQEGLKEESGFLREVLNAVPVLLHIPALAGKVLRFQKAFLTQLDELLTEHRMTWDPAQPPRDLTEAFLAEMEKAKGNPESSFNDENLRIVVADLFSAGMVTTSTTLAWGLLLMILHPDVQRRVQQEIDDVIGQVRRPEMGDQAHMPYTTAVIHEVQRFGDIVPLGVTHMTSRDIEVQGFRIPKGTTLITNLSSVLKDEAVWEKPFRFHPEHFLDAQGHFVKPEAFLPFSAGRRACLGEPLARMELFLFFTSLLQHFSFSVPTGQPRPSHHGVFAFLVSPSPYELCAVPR

[4] = biological target: T2, Corticotropin-releasing factor receptor 2/Corticotropin-releasing factor-binding protein (Homo sapiens, UniProt P24387+Q13324); assay: activators of CRF receptor 2 with binding protein – uHTS hits, confirmation (AID 602473); type: functional; conditions: read-out: EC50_Mean
T2 sequence (Q13324 whole entry): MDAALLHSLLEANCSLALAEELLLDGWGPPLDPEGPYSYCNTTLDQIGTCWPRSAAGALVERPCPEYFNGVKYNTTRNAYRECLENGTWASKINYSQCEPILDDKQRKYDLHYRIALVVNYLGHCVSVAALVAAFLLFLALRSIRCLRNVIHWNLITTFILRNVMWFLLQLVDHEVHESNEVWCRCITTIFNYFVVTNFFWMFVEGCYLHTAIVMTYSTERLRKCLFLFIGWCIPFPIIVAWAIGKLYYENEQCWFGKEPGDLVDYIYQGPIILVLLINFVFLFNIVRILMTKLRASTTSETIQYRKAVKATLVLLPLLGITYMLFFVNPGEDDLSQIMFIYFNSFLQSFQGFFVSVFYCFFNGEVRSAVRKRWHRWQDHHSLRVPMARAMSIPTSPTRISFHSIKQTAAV
T2 sequence (P24387 whole entry): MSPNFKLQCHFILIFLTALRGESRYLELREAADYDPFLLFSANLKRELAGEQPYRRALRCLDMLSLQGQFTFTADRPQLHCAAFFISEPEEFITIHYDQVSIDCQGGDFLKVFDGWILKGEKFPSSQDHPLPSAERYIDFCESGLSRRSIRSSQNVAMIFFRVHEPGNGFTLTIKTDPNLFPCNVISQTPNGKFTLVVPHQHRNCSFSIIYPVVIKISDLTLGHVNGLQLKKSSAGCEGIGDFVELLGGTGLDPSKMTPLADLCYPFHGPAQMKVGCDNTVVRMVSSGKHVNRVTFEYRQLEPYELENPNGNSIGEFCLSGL

[5] = biological target: T2, Corticotropin-releasing factor receptor 2/Corticotropin-releasing factor-binding protein; assay: Dose Response confirmation of uHTS hits for small molecule antagonists of the CRF-binding protein and CRF-R2 receptor complex.; type: functional; conditions: read-out: IC50_Mean

Compound: Cc1ccc(OCc2ccc(C(=O)Nc3c(C)nn(Cc4c(F)c(F)c(F)c(F)c4F)c3C)o2)c([N+](=O)[O-])c1
- EC50 [1]: 25.3 µM (active)
- EC50 (Streptokinase A): 25.6 µM (inconclusive)
- EC50 (Streptococcus): > 150 µM (not active)

Compound: O=C(NCc1ccccn1)Nc1ccc(F)c(Cl)c1
- EC50 [1]: > 150 µM (not active)
- EC50 (Streptokinase A): > 150 µM (not active)
- EC50 (Streptococcus): > 150 µM (not active)

Compound: COc1ccc(-n2nc(C)c3c(O)c4c(nc32)CCCC4)cc1
- EC50 [2]: 0.21 µM (active)
- EC50 [3]: > 60 µM (not active)

Compound: CN1CCN(c2ccc(S(=O)(=O)N3CCCCC3)cc2NC(=O)COc2ccc(F)cc2)CC1
- EC50 [2]: 0.538 µM (active)
- EC50 [3]: > 60 µM (not active)

Compound: CC(CCc1ccccc1)NC(=O)c1ccc(NC(=O)c2cccc(Br)c2)cc1 (stereo not drawn)
- EC50 [2]: 2.02 µM (active)
- EC50 [3]: > 60 µM (not active)

Compound: Cc1ccc(-c2cc(C(F)F)nc(N3CCC(C)CC3)n2)cc1
- EC50 [1]: 6.63 µM (active)
- EC50 (Streptokinase A): > 150 µM (not active)
- EC50 (Streptococcus): 10 µM (active)

Compound: O=C(COc1ccccc1C(=O)NCc1ccncc1)Nc1ccc(Br)cc1
- EC50 [2]: 2.15 µM (active)
- EC50 [3]: > 60 µM (not active)

Compound: CCC(=O)Nc1ccc(-c2nnc(-c3ccccc3)o2)cc1
- EC50 [2]: 1.55 µM (active)
- EC50 [3]: > 60 µM (not active)

Compound: CN(CC1CCCO1)S(=O)(=O)c1ccc(C(=O)Nc2nnc(-c3ccccc3)o2)cc1 (stereo not drawn)
- EC50 [1]: 4.14 µM (active)
- EC50 (Streptococcus): 12.2 µM (active)

Compound: Cc1cnc(CNc2ncnc3ccc(-c4ccc5c(c4)OCO5)cc23)cn1
- AC50 (Cytochrome P450 2C19; read-out: AC50): 15.8 µM (inconclusive)

Compound: COc1ncc2nc(C)c(=O)n(Cc3cccs3)c2n1
- AC50 (Cytochrome P450 2D6): 25.1 µM (inconclusive)

Compound: CCC(C)Sc1cc(-c2nc3ccc(C)cn3c2NCc2ccccc2)ccc1OC (stereo not drawn)
- EC50 [1]: 2.32 µM (active)
- EC50 (Streptokinase A): 2.75 µM (active)
- EC50 (Streptococcus): 9.32 µM (active)

Compound: OCC1(Cc2ccc(Cl)cc2)CCN(Cc2ccc(Oc3ncccn3)cc2)CC1
- EC50 [2]: 0.966 µM (active)
- EC50 [3]: > 60 µM (inconclusive)

Compound: CN(C)CCCNc1oc(-c2ccccc2Cl)nc1S(=O)(=O)c1ccc(F)cc1
- EC50 [2]: 0.135 µM (active)
- EC50 [3]: 24.1 µM (active)

Compound: c1ccc(Cc2noc(CN3CCN(CCOc4ccccc4)CC3)n2)cc1
- EC50 [2]: 1.09 µM (active)
- EC50 [3]: > 60 µM (not active)

Compound: Cc1ccc([N+](=O)[O-])cc1NC(=O)CN(C1CCCCC1)S(=O)(=O)c1ccc(Cl)cc1
- EC50 [2]: 3.08 µM (active)
- EC50 [3]: > 60 µM (not active)

Compound: O=C(NCc1ccc(OC(F)(F)F)cc1)c1cccc2c1C(=O)c1ccc(N3CCCC3)cc1S2(=O)=O
- EC50 [4]: 11.8 µM (active)

Compound: CC(Oc1ccc(Cl)cc1)C(=O)Nc1ccccc1N1CCOCC1 (stereo not drawn)
- EC50 [4]: 7.37 µM (active)

Compound: C=Cn1cc[n+](CC(=O)c2ccc(Cl)cc2)c1
- IC50 [5]: > 47.1 µM (inactive)
- EC50 [4]: > 53 µM (inactive)

Compound: CC(=O)N(CC(=O)O)c1ccccc1C(=O)O
- AC50 (Cytochrome P450 2C19; read-out: AC50): 0.0562 µM (inconclusive)

Compound: O=C1C=C(NCCN2CCOCC2)CC(c2ccccc2)C1 (stereo not drawn)
- AC50 (Cytochrome P450 2C19; read-out: AC50): 39.8 µM (inconclusive)

Compound: Cc1occc1C(=O)NNC(=O)c1ccc(F)cc1
- AC50 (Cytochrome P450 2C19): inconclusive

Compound: CC(=O)Oc1ccc2cc(-c3cccnc3)c(=O)oc2c1
- IC50 [5]: > 47.1 µM (inactive)
- EC50 [4]: > 53 µM (inactive)

Compound: COc1cccc(N2CCN(S(=O)(=O)c3c(C)[nH]c(C)c3C(=O)N3CCCC3)CC2)c1
- IC50 [5]: > 47.1 µM (inactive)
- EC50 [4]: > 53 µM (inactive)

Compound: COc1ccccc1N(CC(=O)N1CCCCC1C)S(=O)(=O)c1ccc(Cl)cc1 (stereo not drawn)
- EC50 [4]: 5.95 µM (active)

Compound: CCn1c2ccccc2c2cc(NC(=O)C/C(C)=N/NC(=O)c3ccccc3N)ccc21
- AC50 (Cytochrome P450 2D6): 25.1 µM (inconclusive)

Compound: CNc1nc(N(C)C)nc(N(C)C)n1 [PENTAMETHYL MELAMINE]
- EC50 [4]: > 53 µM (inactive)
